Assay [1] concerns the target T1, human DOR (Homo sapiens, UniProt P41143). Description: biochemical. The note with it: for Efficacy (% Stimulation) DOR / Efficacy DOR, percent maximal stimulation: relative to DPDPE at 10 μM; for Efficacy (% Stimulation) DOR / Potency EC50 DOR / Efficacy DOR, percent maximal stimulation: DNS = does not stimulate; for Potency EC50 DOR: [35S]GTPγS stimulation; for Efficacy DOR, percent maximal stimulation: Table 3; for Emax: read-out: Efficacy DOR, percent maximal stimulation. On the technique in general: Binding of GTPγS marks nucleotide exchange on a G protein.

The target of assay [2] is T2, human KOR (Homo sapiens, UniProt P41145). Description: [35S]-GTPγS binding assay, CHO-KOR membranes. It counts as biochemical. The note with it: for Efficacy (% Stimulation) KOR / Efficacy KOR, percent maximal stimulation: relative to U69,593 at 10 μM; for Efficacy (% Stimulation) KOR / Potency, EC50 KOR / Efficacy KOR, percent maximal stimulation: DNS = does not stimulate; for Potency, EC50 KOR: [35S]GTPγS stimulation; for Efficacy KOR, percent maximal stimulation: Table 3.

Assay [3] addresses T3, human MOR (Homo sapiens, UniProt P35372). Description: biochemical. The assay is classed as binding.
Assay [4] concerns the target T1, human DOR. The experiment in a line: biochemical. It counts as binding.
Assay [5] deals with T3, human MOR. Description: biochemical. Particulars: for Emax: read-out: Efficacy (% Stimulation) MOR, Table 5; for Emax / Efficacy (% Stimulation) MOR: relative to DAMGO at 10 μM.
The target in assay [6] is T2, human KOR. It counts as binding.

16 molecules from PMC9923772 (ACS chemical neuroscience, 2020) can be followed below.

Counter-ions that a name gives are not always drawn. Like-named read-outs stand apart in the source and are kept apart here.

As to `Cc1cc(O)cc(C)c1C[C@H](N)C(=O)NCCOCC(=O)N1CCc2ccccc2C1.O=C(O)C(F)(F)F` [K, (S)-1-((2-(2-(3,4-Dihydroisoquinolin-2(1H)-yl)-2-oxoethoxy)-ethyl)amino)-3-(4-hydroxy-2,6-dimethylphenyl)-1-oxopropan-2-aminium Trifluoroacetate], the “Efficacy (% Stimulation) DOR” value on human DOR [1] (Table 5) is on record as “DNS”. Further, the “Efficacy (% Stimulation) KOR” value at human KOR [2] (Table 5) is “DNS”.

The Ki is the dissociation constant of the complex between target and ligand, obtained from inhibition or displacement. As a reminder, the EC50 is the concentration giving half of the maximal effect. Regarding `Cc1cc(O)cc(C)c1C[C@H](N)C(=O)NCc1cc(CN2CCc3ccccc3C2)ccc1OCC1CC1.O=C(O)C(F)(F)F` [H, (S)-1-((2-(Cyclopropylmethoxy)-5-((3,4-dihydroisoquinolin-2(1H)-yl)methyl)benzyl)amino)-3-(4-hydroxy-2,6-dimethylphenyl)-1-oxopropan-2-aminium Trifluoroacetate], the “Potency EC50 DOR” value at human DOR [1] (Table 2) is “DNS”. Further, the “Efficacy DOR, percent maximal stimulation” value on human DOR [1] was “DNS”. Moreover, the Ki is 0.05 ± 0.01 nM at human MOR [3], 3.6 ± 0.9 nM on human DOR [4] and 23.5 ± 3.6 nM on human KOR [6]. The “Potency, EC50 KOR” value on human KOR [2] (Table 2) was “DNS”. Further, the “Efficacy KOR, percent maximal stimulation” value on human KOR [2] is recorded as “DNS”. Also, the EC50 at human MOR [5] stood at 1.6 ± 0.5 nM.

Turning to `Cc1cc(O)cc(C)c1C[C@H](N)C(=O)NCc1cccc(CN2CCc3ccccc3C2)c1.O=C(O)C(F)(F)F` [E, (S)-1-((3-((3,4-Dihydroisoquinolin-2(1H)-yl)methyl)benzyl)amino)-3-(4-hydroxy-2,6-dimethylphenyl)-1-oxopropan-2-aminium Trifluoroacetate], the “Efficacy (% Stimulation) DOR” value on human DOR [1] (Table 5) came out at 57±6%. Besides, the Emax on human DOR [1] is 57 ± 6%; on human MOR [5], 126 ± 20%. For the same molecule, the results for the Ki at human MOR [3] and on human KOR [6] were 0.23 ± 0.02 nM and 46.3 ± 9.7 nM, respectively. The “Potency, EC50 KOR” value on human KOR [2] (Table 2) and on human KOR [2] (Table 5) was “DNS” each time. Also, the “Efficacy KOR, percent maximal stimulation” value at human KOR [2] was “DNS”. On human KOR [2] (Table 5), the “Efficacy (% Stimulation) KOR” value is on record as “DNS”. The EC50 on human MOR [5] was determined as 6.1 ± 3.1 nM.

`Cc1cc(O)cc(C)c1C[C@H](N)C(=O)NCCCCCN1CCc2ccccc2C1.O=C(O)C(F)(F)F` [I, (S)-1-((5-(3,4-Dihydroisoquinolin-2(1H)-yl)pentyl)amino)-3-(4-hydroxy-2,6-dimethylphenyl)-1-oxopropan-2-aminium Trifluoroacetate]: at human DOR [1] (Table 5), the “Efficacy (% Stimulation) DOR” value is “DNS”. This molecule came in with a Ki on human MOR [3] of 1.5 ± 0.3 nM. At human KOR [2] (Table 5), the “Potency, EC50 KOR” value is given as “DNS” and the “Efficacy (% Stimulation) KOR” value was “DNS”. In addition, on human MOR [5], the EC50 is 15.4 ± 1.3 nM and the Emax turned out to be 80.8 ± 4.5%. Affinity at human KOR [6] was put at a Ki of 44.2 ± 5.6 nM.

Turning to `CCCOc1ccc(CN2CCCCC2)cc1CNC(=O)[C@@H](N)Cc1c(C)cc(O)cc1C.O=C(O)C(F)(F)F` [C, (S)-3-(4-Hydroxy-2,6-dimethylphenyl)-1-oxo-1-((5-(piperidin-1-ylmethyl)-2-propoxybenzyl)amino)propan-2-aminium Trifluoroacetate], the Emax on human DOR [1] worked out at 39.9 ± 6.5%. Also, the “Efficacy KOR, percent maximal stimulation” value on human KOR [2] is on record as “DNS”.

As to `Cc1cc(O)cc(C)c1C[C@H](N)C(=O)NCC(=O)NCCN1CCc2ccccc2C1.O=C(O)C(F)(F)F` [P, (S)-1-((2-((2-(3,4-Dihydroisoquinolin-2(1H)-yl)ethyl)amino)-2-oxoethyl)amino)-3-(4-hydroxy-2,6-dimethylphenyl)-1-oxopropan-2-aminium Trifluoroacetate], at human DOR [1] (Table 5), the “Efficacy (% Stimulation) DOR” value worked out at 36.5±1.2%. In addition, the “Efficacy (% Stimulation) KOR” value at human KOR [2] (Table 5) is on record as “DNS”. The Emax at human MOR [5] came to 86.6 ± 3.3%.

`Cc1cc(O)cc(C)c1C[C@H](N)C(=O)N1CCN(CCN2CCc3ccccc3C2)CC1.O=C(O)C(F)(F)F` [M, (S)-1-(4-(2-(3,4-Dihydroisoquinolin-2(1H)-yl)ethyl)piperazin-1-yl)-3-(4-hydroxy-2,6-dimethylphenyl)-1-oxopropan-2-aminium Trifluoroacetate]: at human DOR [1] (Table 5), the “Potency EC50 DOR” value is “DNS” and the “Efficacy (% Stimulation) DOR” value is listed as “DNS”. At human MOR [3], this molecule displayed a Ki of 3.59 ± 0.4 nM. At human DOR [4], this molecule came in with a Ki of 16.6 ± 4.9 nM. Further, the “Efficacy (% Stimulation) KOR” value on human KOR [2] (Table 5) is reported as “DNS”. In addition, on human MOR [5], the EC50 was 56 ± 17 nM and the Emax came out at 70 ± 16%.

`COc1ccc(CN2CCCCC2)cc1CNC(=O)[C@@H](N)Cc1c(C)cc(O)cc1C.O=C(O)C(F)(F)F` [B, (S)-3-(4-Hydroxy-2,6-dimethylphenyl)-1-((2-methoxy-5-(piperidin-1-ylmethyl)benzyl)amino)-1-oxopropan-2-aminium Trifluoroacetate]: the Emax on human DOR [1] stood at 37.2 ± 6.2%. Also, the “Potency, EC50 KOR” value at human KOR [2] (Table 2) was “DNS”. Further, the “Efficacy KOR, percent maximal stimulation” value on human KOR [2] was “DNS”. Further, the affinity at human KOR [6] corresponds to a Ki of 23.5 ± 7.3 nM.

For the molecule `Cc1cc(O)cc(C)c1C[C@H](N)C(=O)NCCN(C)CCN1CCc2ccccc2C1.O=C(O)C(F)(F)F` [N, (S)-1-((2-((2-(3,4-Dihydroisoquinolin-2(1H)-yl)ethyl)(methyl)amino)ethyl)amino)-3-(4-hydroxy-2,6-dimethylphenyl)-1-oxopro-pan-2-aminium Trifluoroacetate], the Ki at human MOR [3] (read-out: Binding Affinity, Ki MOR, Table 4, simple core compounds, mean ± SEM) was determined as 1.7 ± 0.39 nM; at human DOR [4] (read-out: Binding Affinity, Ki DOR, Table 4, simple core compounds, mean ± SEM), 77 ± 45 nM; at human KOR [6] (read-out: Binding Affinity, Ki KOR, Table 4, simple core compounds, mean ± SEM), 8.5 ± 1.1 nM. The “Efficacy (% Stimulation) KOR” value at human KOR [2] (Table 5) is 43.0±2.5%. At human MOR [5] (Table 5), the “Efficacy (% Stimulation) MOR” value was 80.0±9.5%. Besides, the EC50 on human MOR [5] (read-out: Potency, EC50 MOR, Table 5, [35S]GTPγS stimulation) was determined as 24 ± 10 nM.

As for `Cc1cc(O)cc(C)c1C[C@H](N)C(=O)NCCOCCN1CCc2ccccc2C1.O=C(O)C(F)(F)F` [J, (S)-1-((2-(2-(3,4-Dihydroisoquinolin-2(1H)-yl)ethoxy)ethyl)amino)-3-(4-hydroxy-2,6-dimethylphenyl)-1-oxopropan-2-aminium Trifluoroacetate], on human DOR [1] (Table 5), the “Efficacy (% Stimulation) DOR” value is 27.4±8.2%. Further, at human KOR [2] (Table 5), the “Efficacy (% Stimulation) KOR” value is 22.0±3.8%. Further, the “Efficacy (% Stimulation) MOR” value on human MOR [5] (Table 5) worked out at 90.7±3.6%. Moreover, at human MOR [5], the Emax was determined as 90.7%.

Consider `CCCOc1ccc(CN2CCc3ccccc3C2)cc1CNC(=O)[C@@H](N)Cc1c(C)cc(O)cc1C.O=C(O)C(F)(F)F` [G, (S)-1-((5-((3,4-Dihydroisoquinolin-2(1H)-yl)methyl)-2-propoxybenzyl)amino)-3-(4-hydroxy-2,6-dimethylphenyl)-1-oxopropan-2-aminium Trifluoroacetate], for which, at human DOR [1] (Table 2), the “Potency EC50 DOR” value is given as “DNS”. Moreover, the “Efficacy DOR, percent maximal stimulation” value at human DOR [1] is recorded as “DNS”. In addition, the Ki came out at 0.22 ± 0.04 nM on human MOR [3] and 1.4 ± 0.3 nM on human DOR [4]. Further, the “Efficacy KOR, percent maximal stimulation” value on human KOR [2] is on record as “DNS”. Moreover, at human MOR [5], the concentration giving a half-maximal response (EC50) worked out at 2.6 ± 1.3 nM.

On to `Cc1cc(O)cc(C)c1C[C@H](N)C(=O)NCc1cc(CN2CCCCC2)ccc1OCC1CC1.O=C(O)C(F)(F)F` [D, (S)-1-((2-(Cyclopropylmethoxy)-5-(piperidin-1-ylmethyl)benzyl)amino)-3-(4-hydroxy-2,6-dimethylphenyl)-1-oxopropan-2-aminium Trifluoroacetate], for which, at human DOR [1], the Emax was 17.7 ± 4.4%. Moreover, the “Efficacy KOR, percent maximal stimulation” value at human KOR [2] is “DNS”.

On to `Cc1cc(O)cc(C)c1C[C@H](N)C(=O)NCC(=O)N(C)CCN1CCc2ccccc2C1.O=C(O)C(F)(F)F` [O, (S)-1-((2-((2-(3,4-Dihydroisoquinolin-2(1H)-yl)ethyl)(methyl)amino)-2-oxoethyl)amino)-3-(4-hydroxy-2,6-dimethylphenyl)-1-oxopropan-2-aminium Trifluoroacetate], for which the “Efficacy (% Stimulation) DOR” value on human DOR [1] (Table 5) is reported as “DNS”. Moreover, the “Efficacy (% Stimulation) KOR” value on human KOR [2] (Table 5) is “DNS”. Further, at human MOR [5], the Emax was 53 ± 17%.

Turning to `Cc1cc(O)cc(C)c1C[C@H](N)C(=O)N1CCC(CCN2CCc3ccccc3C2)CC1.O=C(O)C(F)(F)F` [L, (S)-1-(4-(2-(3,4-Dihydroisoquinolin-2(1H)-yl)ethyl)piperidin-1-yl)-3-(4-hydroxy-2,6-dimethylphenyl)-1-oxopropan-2-aminium Trifluoroacetate], on human DOR [1] (Table 5), the “Efficacy (% Stimulation) DOR” value is on record as “DNS”. On human MOR [3], the Ki is 1.64 ± 0.62 nM. Besides, on human KOR [2] (Table 5), the “Potency, EC50 KOR” value is given as “DNS” and the “Efficacy (% Stimulation) KOR” value was “DNS”. Also, on human MOR [5], the EC50 is 68 ± 19 nM and the Emax was 73 ± 12%. The same molecule came in with a Ki at human KOR [6] of 21 ± 5.9 nM.

As to `COc1ccc(CN2CCc3ccccc3C2)cc1CNC(=O)[C@@H](N)Cc1c(C)cc(O)cc1C` [F, (S)-1-((5-((3,4-Dihydroisoquinolin-2(1H)-yl)methyl)-2-methoxybenzyl)amino)-3-(4-hydroxy-2,6-dimethylphenyl)-1-oxopropan-2-aminium Trifluoroacetate], the 50% effective concentration (EC50) on human DOR [1] was 5 ± 0.9 nM; on human KOR [2], greater than 1000 nM; on human MOR [5] it was 2.9 ± 0.5 nM. The Emax on human DOR [1] was 29.8 ± 3.5%; on human KOR [2] (read-out: Efficacy KOR, percent maximal stimulation), greater than 15%. Besides, the Ki amounted to 0.16 ± 0.05 nM at human MOR [3], 3 ± 0.8 nM at human DOR [4] and 28.4 ± 3.1 nM at human KOR [6].

`Cc1cc(O)cc(C)c1C[C@H](N)C(=O)NCc1cccc(CN2CCCCC2)c1.O=C(O)C(F)(F)F` [A, (S)-3-(4-Hydroxy-2,6-dimethylphenyl)-1-oxo-1-((3-(piperidin-1-ylmethyl)benzyl)amino)propan-2-aminium Trifluoroacetate]: the “Efficacy DOR, percent maximal stimulation” value on human DOR [1] is reported as “DNS”. The molecule further showed an inhibition constant (Ki) on human MOR [3] of 9.3 ± 1.3 nM. In addition, on human KOR [2], the “Efficacy KOR, percent maximal stimulation” value was “DNS”. In addition, the EC50 on human MOR [5] was greater than 740 nM.
